According to patent publication US20170029355A1, “LABILE ESTERS OF AGROCHEMICALS FOR CONTROLLED RELEASE AND REDUCTION OF OFF-SITE MOVEMENT” (Monsanto Technology LLC, priority 2011, published 2017):
Where two headings read alike, the source gives them in different places.

What was measured:
hemp sesbania = test: Field testing of emulsifiable concentrates, post-emergent control (Example 40); format: in vivo; settings: for % control 19 days after treatment, 280 g/ha, Hemp sesbania: 280 g dicamba acid equivalent per hectare; for % control 19 days after treatment, 560 g/ha, Hemp sesbania: 560 g dicamba acid equivalent per hectare
Description: (§1) Three dicamba esters, 30a, 32a, and 36a, were formulated as emulsifiable concentrates for field testing. All surfactants are commercial materials from Stepan.
(§2) The formulations were tested in the field. Locations and timing were identical for the three esters, but differed slightly for the diglycolamine control. The esters were compared to the diglycolamine salt of dicamba (CLARITY™) for post-emergent control of three broadleaf weeds: velvetleaf, morning glory, and hemp sesbania. Rates of 280 and 560 g dicamba acid equivalent per hectare were used.

morning glory = test: as above; format: in vivo; settings: for % control 19 days after treatment, 280 g/ha, Morning glory: 280 g dicamba acid equivalent per hectare; for % control 19 days after treatment, 560 g/ha, Morning glory: 560 g dicamba acid equivalent per hectare
Description: as §1, §2

velvetleaf [1] = test: as above; format: in vivo; settings: for % control 19 days after treatment, 280 g/ha, Velvetleaf: 280 g dicamba acid equivalent per hectare; for % control 19 days after treatment, 560 g/ha, Velvetleaf: 560 g dicamba acid equivalent per hectare
Description: as §1, §2

[2] = tested on: three broadleaf weeds: velvetleaf, morning glory, and hemp sesbania; test: Field testing of Example 40, overall post-emergent activity in words; format: in vivo; settings: 280 and 560 g dicamba acid equivalent per hectare
Description: as §1, §2

broadleaf weeds = test: Control of broadleaf weeds by ester concentrates (statements of the description); format: in vivo; settings: emulsifiable and suspension concentrates; Sesbania macrocarpa, morning glory, velvetleaf, Palmer amaranth, fat hen, sicklepod
velvetleaf [3] = test: Greenhouse post-emergent control of velvetleaf by emulsifiable concentrates (Example 37); format: in vivo; settings: for pest or weed control at 140 g/ha / pest or weed control at 280 g/ha / pest or weed control at 420 g/ha / pest or weed control at 560 g/ha: Abutilon theophrasti, post-emergence, 504 h; for pest or weed control at 140 g/ha: read-out: % Control of velvetleaf, 140 g/ha; for pest or weed control at 280 g/ha: read-out: % Control of velvetleaf, 280 g/ha; for pest or weed control at 420 g/ha: read-out: % Control of velvetleaf, 420 g/ha; for pest or weed control at 560 g/ha: read-out: % Control of velvetleaf, 560 g/ha
How it was run: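 Photo-labile dicamba ester emulsifiable concentrates sprayed post-emergence in the greenhouse on velvetleaf 10-15 cm tall at 140, 280, 420 and 560 g dicamba equivalent per hectare. Percent control scored three weeks after treatment.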

[4] = In vitro photo-release and hydrolytic release of dicamba in an aqueous medium (Example 35); format: physicochemical; settings: 0.01 mM ester, 35° C.
Description: This Example describes the determination of photo-lability and hydrolytic lability of dicamba esters in an aqueous medium. 1 mM solutions of the esters were prepared in acetonitrile (or […] solutions of dicamba diesters). The solutions were then diluted with deionized water to a concentration of 0.01 mM (or 0.005 mM for diesters). The solutions were then transferred to quartz tubes and amber bottles and held in a growth chamber by the procedure of Example 26. A 14-hour day was generally used at a constant temperature of 35° C. Hydrolytic activity was assessed by measuring the increase in dicamba concentration after day zero in the amber (dark) bottles. […] Photolysis manifested itself as increased conversion in the quartz tubes compared to the dark control.

soybeans = test: Humidome volatility injury, ester 32a emulsifiable concentrate (Example 32); settings: humidome, dicamba 0.6% and glyphosate 1.2% acid equivalent, 14 days after treatment
Text: […] The mixtures were sprayed at a 10 gallon per acre (93.5 liters per hectare) rate on soil in a plastic container (“humidome”) with a transparent lid. One soil container was sprayed with water as a control. Four glyphosate-tolerant, dicamba-sensitive soy plants between V2 and V3 stage were immediately placed on the sprayed soil and the domes attached to the trays with binder clips. The soy plants were in pots placed directly on the soil but with aluminum foil wrapped around the bottom to prevent uptake of dicamba or dicamba esters through the roots.
The closed containers were held for 24 hours in a growth chamber which was maintained at 35° C. with 40% relative humidity. […] At this time plant injury and growth stage were assessed compared to the control treated with water only.

| SMILES | % control 19 days after treatment, 280 g/ha, Hemp sesbania (hemp sesbania) | % control 19 days after treatment, 560 g/ha, Hemp sesbania (hemp sesbania) | % control 19 days after treatment, 280 g/ha, Morning glory (morning glory) | % control 19 days after treatment, 560 g/ha, Morning glory (morning glory) | % control 19 days after treatment, 280 g/ha, Velvetleaf (velvetleaf [1]) | % control 19 days after treatment, 560 g/ha, Velvetleaf (velvetleaf [1]) | post-emergent activity compared with the dicamba salt, in words [2] | control of a number of broadleaf weeds in field testing, in words (broadleaf weeds) | Conversion to Dicamba, Dark, Day 0 ([4]; amber (dark) bottle) | Conversion to Dicamba, Dark, Day 3 ([4]; amber (dark) bottle) | Conversion to Dicamba, Dark, Day 14 ([4]; amber (dark) bottle) | Conversion to Dicamba, Dark, Day 21 ([4]; amber (dark) bottle) | Conversion to Dicamba, Dark, Day 28 ([4]; amber (dark) bottle) | Conversion to Dicamba, Light, Day 0 ([4]; quartz tube, 14-hour day) | Conversion to Dicamba, Light, Day 3 ([4]; quartz tube, 14-hour day) | Conversion to Dicamba, Light, Day 14 ([4]; quartz tube, 14-hour day) | Conversion to Dicamba, Light, Day 21 ([4]; quartz tube, 14-hour day) | Conversion to Dicamba, Light, Day 28 ([4]; quartz tube, 14-hour day) | further results |
| --- | --- | --- | --- | --- | --- | --- | --- | --- | --- | --- | --- | --- | --- | --- | --- | --- | --- | --- | --- |
| COc1ccc(OC(=O)c2c(Cl)ccc(Cl)c2OC)cc1 [Ester 30a, 4-methoxyphenyl ester of dicamba] | 50 ± 20% | 67 ± 13% | 79 ± 7% | 78 ± 10% | 56 ± 25% | 65 ± 25% | less efficacious | proven effective | 6% | 5% | 17% | 17% | 19% | 6% | 14% | 23% | 29% | 36% | pest or weed control at 140 g/ha (velvetleaf [3]; greenhouse, 140 g/ha, Example 37): 19.2%; pest or weed control at 280 g/ha (velvetleaf [3]; greenhouse, 280 g/ha, Example 37): 12.5%; pest or weed control at 420 g/ha (velvetleaf [3]; greenhouse, 420 g/ha, Example 37): 18.3%; pest or weed control at 560 g/ha (velvetleaf [3]; greenhouse, 560 g/ha, Example 37): 15% |
| COc1c(Cl)ccc(Cl)c1C(=O)Oc1ccc(=O)n(CCC(C)=O)n1 [Ester 32a] | 76 ± 5% | 91 ± 8% | 70 ± 24% | 87 ± 10% | 59 ± 28% | 68 ± 26% | intermediate activity | proven effective | 5% | 17% | 41% | 55% | 70% | 5% | 18% | 44% | 50% | 59% | average injury to soybeans (soybeans): 19%; pest or weed control at 140 g/ha (velvetleaf [3]): 12.5%; pest or weed control at 280 g/ha (velvetleaf [3]): 19.2%; pest or weed control at 420 g/ha (velvetleaf [3]): 33.3%; pest or weed control at 560 g/ha (velvetleaf [3]): 37.5%; post-emergent efficacy on velvetleaf compared with the salt, in words (velvetleaf [3]; greenhouse, emulsifiable concentrates): reduced post-emergent efficacy; Conversion to Dicamba, Dark, Day 1 ([4]; amber (dark) bottle, Day 1): 12%; Conversion to Dicamba, Dark, Day 2 ([4]; amber (dark) bottle, Day 2): 14%; Conversion to Dicamba, Dark, Day 4 ([4]; amber (dark) bottle, Day 4): 22%; Conversion to Dicamba, Dark, Day 7 ([4]; amber (dark) bottle, Day 7): 34%; Conversion to Dicamba, Light, Day 1 ([4]; quartz tube, 14-hour day, Day 1): 14%; Conversion to Dicamba, Light, Day 2 ([4]; quartz tube, 14-hour day, Day 2): 16%; Conversion to Dicamba, Light, Day 4 ([4]; quartz tube, 14-hour day, Day 4): 22%; Conversion to Dicamba, Light, Day 7 ([4]; quartz tube, 14-hour day, Day 7): 27% |
